In patent US10676467B2 (Washington University, priority 2017, dated 2020):
Where two headings read alike, the source gives them in different places.

Biological target: recombinant human S1P1 (Homo sapiens (Human), UniProt P21453)
Experiment: [32P]S1P competitive binding assay on cell membranes
Details: for IC50: read-out: S1P1 IC50 ± SD
[1] = competition against [32P]S1P, membranes with recombinant human S1P1, mean ± SD

recombinant human S1P1, sequence (P21453 whole entry): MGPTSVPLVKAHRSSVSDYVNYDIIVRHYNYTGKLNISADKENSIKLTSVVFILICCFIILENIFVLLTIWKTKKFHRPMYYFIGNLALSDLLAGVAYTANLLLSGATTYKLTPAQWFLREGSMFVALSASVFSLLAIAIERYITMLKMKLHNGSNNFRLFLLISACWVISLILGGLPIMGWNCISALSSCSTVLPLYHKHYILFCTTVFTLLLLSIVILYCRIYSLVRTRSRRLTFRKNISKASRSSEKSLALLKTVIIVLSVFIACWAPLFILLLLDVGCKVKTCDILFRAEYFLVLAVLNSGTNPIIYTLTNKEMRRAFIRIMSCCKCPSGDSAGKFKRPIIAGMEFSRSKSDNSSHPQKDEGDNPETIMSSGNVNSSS
Method: Competitive binding was performed for 60 min at room temperature and terminated by collecting the membranes onto 96-well glass fiber (GF/B) filtration plates (Millipore, Billerica, Mass.). Each filter was washed with 200 μL of assay buffer for five times. The filter bound radionuclide was measured by a Beckman LS3801 scintillation counter using Cherenkov counting. The reported IC50 values were calculated using the 4 parameter equation, least-square non-linear regression curve-fit, with GraphPad Prism software (GraphPad Software, Inc). Each assay was repeated at least three times with duplicate wells for each compound; the reported values (mean±SD, nM) are calculated from the average of all assays.

Structure (SMILES) | IC50 [1] | also measured
COc1ccc(-c2nc(-c3ccc(CN4CC(C(=O)O)C4)cc3)no2)cc1C(F)(F)F [TZ-43-26] | 0.103 ± 0.0209 µM | –
O=C(O)c1cn(Cc2ccc(-c3noc(-c4ccc(OCCF)c(C(F)(F)F)c4)n3)cc2)nn1 [Compound 22a, 1-(4-(5-(4-(2-Fluoroethoxy)-3-(trifluoromethyl)phenyl)-1,2,4-oxadiazol-3-yl)benzyl)-1H-1,2,3-triazole-4-carbox-ylic acid] | – | IC50: 0.341 µM; Fold increased S1P1 IC50 compared to compound 4 (vs compound 4 (2.6 nM)): 130 fold
NC(=O)c1ccc(-c2noc(-c3ccc(OCCF)c(C(F)(F)F)c3)n2)cc1 [Compound 19b, 4-(5-(4-(2-Fluoroethoxy)-3-(trifluoromethyl)phenyl)-1,2,4-oxadiazol-3-yl)benzamide] | – | IC50 (competition against [32P]S1P, membranes with recombinant human S1P1, mean ± SD, listed as TZ-43-77): 0.067 ± 0.0126 µM
O=C(O)C1CN(c2cccc(-c3noc(-c4ccc(OCCF)c(C(F)(F)F)c4)n3)c2)C1 [TZ-48-10] | > 1 µM | –
O=C(O)C1CCN(c2ccc3oc(-c4ccc(-c5ccc(F)cc5)c(C(F)(F)F)c4)nc3c2)CC1 [TZ-31-39] | 0.486 ± 0.069 µM | –
O=C(O)C1CN(Cc2ccc3oc(-c4ccc(-c5ccc(F)nc5)c(C(F)(F)F)c4)nc3c2)C1 [TZ-35-73] | 0.0927 ± 0.0353 µM | –
O=C(O)C1CCN(c2cccc(-c3noc(-c4ccc(OCCF)c(C(F)(F)F)c4)n3)c2)CC1 [TZ-43-117] | 0.0729 ± 0.0112 µM | –
OCCOCCOCCOCc1ccc(-c2noc(-c3ccc(OCCF)c(C(F)(F)F)c3)n2)cc1 [Compound 12c] | 0.106 µM | –
CN(CCC(=O)O)Cc1ccc(-c2noc(-c3ccc(-c4ccccc4OCCF)c(C(F)(F)F)c3)n2)cc1F [TZ-33-37] | 0.0753 ± 0.0209 µM | –
O=C(O)c1ccc(-c2ccc3oc(-c4ccc(-c5ccc(F)cc5)c(C(F)(F)F)c4)nc3c2)s1 [TZ-31-85] | 0.334 ± 0.0588 µM | –
COc1cccc(-c2ccc(-c3nc4cc(N5CCC(C(=O)O)CC5)ccc4o3)cc2C(F)(F)F)c1 [TZ-31-120] | 0.0957 ± 0.0251 µM | –
COc1ccc(-c2nc(-c3ccc(CO)cc3)no2)cc1C(F)(F)F [TZ-43-18] | 0.0537 ± 0.0158 µM | –
O=C(O)C1CN(Cc2ccc3oc(-c4ccc(-c5ccc(OCCF)nc5)c(C(F)(F)F)c4)nc3c2)C1 [TZ-35-139] | 0.0764 ± 0.0216 µM | –
CN(CCO)CCOCc1ccc(-c2noc(-c3ccc(OCCF)c(C(F)(F)F)c3)n2)cc1 [Compound 12g] | 0.13 µM | –
O=C(O)C1CCN(c2ccc3oc(-c4ccc(-c5ccccc5OCCF)c(C(F)(F)F)c4)nc3c2)CC1 [TZ-31-53] | 0.894 ± 0.367 µM | –
CN(Cc1ccc(-c2noc(-c3ccc(OCCF)c(C(F)(F)F)c3)n2)cc1)CC(O)CO (stereo not drawn) [Compound 8g] | 0.038 µM | –

Further lines, with some results ahead:

IC50 [1] | Structure (SMILES) | also measured
> 1 µM | O=C(O)c1ccc(-c2noc(-c3ccc(OCCF)c(C(F)(F)F)c3)n2)cc1 [Compound 20a, 4-(5-(4-(2-Fluoroethoxy)-3-(trifluoromethyl)phenyl)-1,2,4-oxadiazol-3-yl)benzoic acid] | –
0.509 ± 0.167 µM | FCCOc1ccc(-c2nc(-c3ccc(CNCc4nnn[nH]4)cc3)no2)cc1C(F)(F)F [TZ-35-126] | –
0.272 ± 0.065 µM | O=C(NO)c1ccc(-c2noc(-c3ccc(OCCF)c(C(F)(F)F)c3)n2)cc1 [Compound 20b, 4-(5-(4-(2-Fluoroethoxy)-3-(trifluoromethyl)phenyl)-1,2,4-oxadiazol-3-yl)-N-hydroxybenzamide] | Fold increased S1P1 IC50 compared to 19b (vs 19b): 4 fold
0.0238 µM | OCC(O)c1ccc(-c2noc(-c3ccc(OCCF)c(C(F)(F)F)c3)n2)cc1 (stereo not drawn) [Compound 8k] | Fold decrease of S1P1 binding potency compared to 8c (vs 8c): 4 fold
0.0756 µM | OCCNCCOCc1ccc(-c2noc(-c3ccc(OCCF)c(C(F)(F)F)c3)n2)cc1 [Compound 12f] | –
0.0184 ± 0.0032 µM | OCc1ccc(-c2noc(-c3ccc(OCCCF)c(C(F)(F)F)c3)n2)cc1 [TZ-48-24] | –
0.0074 ± 0.0018 µM | [N-]=[N+]=NCc1ccc(-c2noc(-c3ccc(OCCF)c(C(F)(F)F)c3)n2)cc1 [TZ-43-91] | –
0.0872 ± 0.0177 µM | OCC(CO)NCc1ccc(-c2noc(-c3ccc(OCCF)c(C(F)(F)F)c3)n2)cc1 [Compound 10a, 2-((4-(5-(4-(2-Fluoroethoxy)-3-(trifluoromethyl)phenyl)-1,2,4-oxadiazol-3-yl)benzyl)amino)propane-1,3-diol] | –
